Source: EP0462071B1, “Pharmaceutical resorption-improved somatostatin compositions, their preparation and use” (SANDOZ LTD., priority 1990, dated 1991)
Read-outs that look alike come from different tables or passages of the source.

Test: Resorption of octreotide after injection of a solution into the jejunum of anaesthetised rats; plasma concentration by radio-immunoassay
Type: in vivo, Wistar rats
Settings: for AUC(0-t): area under the curve over 2 hours
Experimental: Wistar rats (about 300 g body weight) were fasted for 12 hours and anaesthetised with urethane (2 doses of […] i.p.). The abdomen was opened to gain access to the gastrointestinal tract in particular the jejunum. A solution of the pharmaceutical composition according to the invention or of the somatostatin as a control or of a somatostatin in combination with sodium taurocholate, a resorption enhancer, known to be used in combination with e.g. salmon calcitonin or insulin for an improved resorption through the mucous membrane of the gastrointestinal tract, was injected into the gastrointestinal tract, e.g. the jejunum. Blood samples (e.g. 1 ml) are obtained 20 minutes, and 1 and 2 hours after administration from the vena cava. The blood is centrifuged and the somatostatin concentration in the plasma determined in conventional manner using a radio-immunoassay method.
The relative bioavailability (AUCo² = Area under the curve over 2 hours) is determined and expressed in the following table, in which the AUC is expressed as ng/ml.hour and Cmax as ng/ml: TABLE A

With `C[C@@H](O)[C@@H]1NC(=O)[C@H](CCCCN)NC(=O)[C@@H](Cc2c[nH]c3ccccc23)NC(=O)[C@H](Cc2ccccc2)NC(=O)[C@@H](NC(=O)[C@H](N)Cc2ccccc2)CSSC[C@@H](C(=O)N[C@H](CO)[C@@H](C)O)NC1=O` [100 microg. of octreotide (reference), Octreotide] the Cmax (Wistar, rat, 100 microg., octreotide in plasma, 0.5 ml of NaCl (0.9 % W/V) solution injected into the jejunum, sem in the next column) was 2.23 ng/mL, the AUC(0-t) (Wistar, rat, 100 microg., octreotide in plasma, 0.5 ml of NaCl (0.9 % W/V) solution injected into the jejunum, blood samples at 20 minutes, 1 and 2 hours, read-out: AUCo² median) was 2.06 ng·h/mL and the AUC(0-t) (Wistar, rat, plasma, 100 microg., octreotide in plasma, 0.5 ml of NaCl (0.9 % W/V) solution injected into the jejunum, sem in the next column, read-out: AUCo² mean) was 2.26 ng·h/mL. It also gave a Bioavail. rel. % (relative to 100 microg. of octreotide alone (reference = 100 %), values correspond to the ratio of the median AUCo²) of 100%.
